≈ marks a conversion by molar mass, not a printed value. Where two headings read alike, the source gives them in different places. Peptide text beside a SMILES is read from it.
What was measured:
Format in all cases: cell-based
S. Typhimurium PY01 = assay: MIC, colistin-susceptible S. Typhimurium, with and without otilonium bromide; conditions: Salmonella enterica
[1] = tested on: mcr-1-bearing E. coli J53; assay: SYTOX Green membrane permeability staining; conditions: each drug individually
Text: SYTOX™ Green (available from ThermoFisher Scientific) staining analysis assesses the membrane permeability of colistin-resistant E. coli before and after treatment with the colistin and otilonium bromide combination. SYTOX Green is a green-fluorescent nucleotide dye used to test membrane permeability and membrane integrity. Green fluorescence is detected by fluorescence spectrometer when bacterial cell integrity is destroyed and membrane permeability increases.

[2] = tested on: mcr-1-bearing E. coli J53; assay: microbe, parasite or virus in culture; conditions: 20 μg/ml of otilonium bromide
Text: E. coli J53 strain carrying a natural mcr-1-bearing IncI2 plasmid (33 kb, KX711706.1) is used to screen and identify colistin adjuvants which could enhance the antibacterial activity of colistin.

[3] = tested on: E. coli (colistin-resistant); assay: MIC, colistin-resistant E. coli clinical isolates, with and without otilonium bromide; conditions: Escherichia coli

## CCC(C)CCCC(=O)N[C@@H](CCN)C(=O)N[C@H](C(=O)N[C@@H](CCN)C(=O)N[C@H]1CCNC(=O)[C@H]([C@@H](C)O)NC(=O)[C@H](CCN)NC(=O)[C@H](CCN)NC(=O)[C@H](CC(C)C)NC(=O)[C@@H](CC(C)C)NC(=O)[C@H](CCN)NC1=O)[C@@H](C)O (stereo partly drawn) [Colistin] (HELM PEPTIDE1{[CCC(C)CCCC(=O)[*:2]].[Dab].T.[Dab].[Dab].[Dab].[dL].L.[Dab].[Dab].T}$PEPTIDE1,PEPTIDE1,5:R3-11:R2$$$V2.0)
S. Typhimurium PY01; colistin alone, read-out: Colistin MIC, Colistin
  MIC: 2 µg/mL (≈ 1.73 µM)
S. Typhimurium PY01; in the presence of 10 ug/ml Ob, read-out: Colistin MIC, Colistin + 10 ug/ml Ob
  MIC: 0.125 µg/mL
S. Typhimurium PY01; in the presence of 20 ug/ml Ob, read-out: Colistin MIC, Colistin + 20 ug/ml Ob
  MIC: 0.03 µg/mL
[1]
  SYTOX Green fluorescence (membrane permeability): significant increase in fluorescence
[2]; Escherichia coli, read-out: colistin MIC (minimum inhibitory concentration), mcr-1-bearing E. coli J53
  MIC: 0.28 µg/mL (≈ 0.242 µM)
[2]; mcr-1-bearing E. coli J53
  reduction in colistin MIC: 32 fold
[3]; E. coli 5, colistin-resistant, colistin alone, read-out: Colistin MIC, Colistin
  MIC: 8 µg/mL (≈ 6.92 µM)
[3]; E. coli 5, colistin-resistant, in the presence of 10 ug/ml Ob, read-out: Colistin MIC, Colistin + 10 ug/ml Ob
  MIC: 4 µg/mL
[3]; E. coli 5, colistin-resistant, in the presence of 20 ug/ml Ob, read-out: Colistin MIC, Colistin + 20 ug/ml Ob
  MIC: ≤ 0.25 µg/mL
[3]; E. coli 12.12.0487, colistin-resistant, colistin alone, read-out: Colistin MIC, Colistin
  MIC: 8 µg/mL (≈ 6.92 µM)
[3]; E. coli 12.12.0487, colistin-resistant, in the presence of 10 ug/ml Ob, read-out: Colistin MIC, Colistin + 10 ug/ml Ob
  MIC: 2 µg/mL
[3]; E. coli 12.12.0487, colistin-resistant, in the presence of 20 ug/ml Ob, read-out: Colistin MIC, Colistin + 20 ug/ml Ob
  MIC: 0.5 µg/mL
[3]; E. coli 101, colistin-resistant, colistin alone, read-out: Colistin MIC, Colistin
  MIC: 8 µg/mL (≈ 6.92 µM)
[3]; E. coli 101, colistin-resistant, in the presence of 10 ug/ml Ob, read-out: Colistin MIC, Colistin + 10 ug/ml Ob
  MIC: 4 µg/mL
[3]; E. coli 101, colistin-resistant, in the presence of 20 ug/ml Ob, read-out: Colistin MIC, Colistin + 20 ug/ml Ob
  MIC: 1 µg/mL
[3]; E. coli 119, colistin-resistant, colistin alone, read-out: Colistin MIC, Colistin
  MIC: 16 µg/mL (≈ 13.8 µM)
[3]; E. coli 119, colistin-resistant, in the presence of 10 ug/ml Ob, read-out: Colistin MIC, Colistin + 10 ug/ml Ob
  MIC: 4 µg/mL
[3]; E. coli 119, colistin-resistant, in the presence of 20 ug/ml Ob, read-out: Colistin MIC, Colistin + 20 ug/ml Ob
  MIC: 2 µg/mL
[3]; E. coli 812, colistin-resistant, colistin alone, read-out: Colistin MIC, Colistin
  MIC: 16 µg/mL (≈ 13.8 µM)
[3]; E. coli 812, colistin-resistant, in the presence of 10 ug/ml Ob, read-out: Colistin MIC, Colistin + 10 ug/ml Ob
  MIC: 4 µg/mL
[3]; E. coli 812, colistin-resistant, in the presence of 20 ug/ml Ob, read-out: Colistin MIC, Colistin + 20 ug/ml Ob
  MIC: 1 µg/mL
[3]; E. coli 2016.2.5 1149-1, colistin-resistant, colistin alone, read-out: Colistin MIC, Colistin
  MIC: 8 µg/mL (≈ 6.92 µM)
[3]; E. coli 2016.2.5 1149-1, colistin-resistant, in the presence of 10 ug/ml Ob, read-out: Colistin MIC, Colistin + 10 ug/ml Ob
  MIC: 4 µg/mL
[3]; E. coli 2016.2.5 1149-1, colistin-resistant, in the presence of 20 ug/ml Ob, read-out: Colistin MIC, Colistin + 20 ug/ml Ob
  MIC: 1 µg/mL
[3]; E. coli 34650, colistin-resistant, colistin alone, read-out: Colistin MIC, Colistin
  MIC: 8 µg/mL (≈ 6.92 µM)
[3]; E. coli 34650, colistin-resistant, in the presence of 10 ug/ml Ob, read-out: Colistin MIC, Colistin + 10 ug/ml Ob
  MIC: 2 µg/mL
[3]; E. coli 34650, colistin-resistant, in the presence of 20 ug/ml Ob, read-out: Colistin MIC, Colistin + 20 ug/ml Ob
  MIC: 0.5 µg/mL
[3]; E. coli CX48, colistin-resistant, colistin alone, read-out: Colistin MIC, Colistin
  MIC: 8 µg/mL (≈ 6.92 µM)
[3]; E. coli CX48, colistin-resistant, in the presence of 10 ug/ml Ob, read-out: Colistin MIC, Colistin + 10 ug/ml Ob
  MIC: 4 µg/mL
[3]; E. coli CX48, colistin-resistant, in the presence of 20 ug/ml Ob, read-out: Colistin MIC, Colistin + 20 ug/ml Ob
  MIC: 1 µg/mL
[3]; E. coli CX53, colistin-resistant, colistin alone, read-out: Colistin MIC, Colistin
  MIC: 8 µg/mL (≈ 6.92 µM)
[3]; E. coli CX53, colistin-resistant, in the presence of 10 ug/ml Ob, read-out: Colistin MIC, Colistin + 10 ug/ml Ob
  MIC: 4 µg/mL
[3]; E. coli CX53, colistin-resistant, in the presence of 20 ug/ml Ob, read-out: Colistin MIC, Colistin + 20 ug/ml Ob
  MIC: 2 µg/mL
[3]; E. coli CX116, colistin-resistant, colistin alone, read-out: Colistin MIC, Colistin
  MIC: 2 µg/mL (≈ 1.73 µM)
[3]; E. coli CX116, colistin-resistant, in the presence of 10 ug/ml Ob, read-out: Colistin MIC, Colistin + 10 ug/ml Ob
  MIC: ≤ 0.25 µg/mL
[3]; E. coli CX116, colistin-resistant, in the presence of 20 ug/ml Ob, read-out: Colistin MIC, Colistin + 20 ug/ml Ob
  MIC: ≤ 0.25 µg/mL
[3]; E. coli WZ2431, colistin-resistant, colistin alone, read-out: Colistin MIC, Colistin
  MIC: 8 µg/mL (≈ 6.92 µM)
[3]; E. coli WZ2431, colistin-resistant, in the presence of 10 ug/ml Ob, read-out: Colistin MIC, Colistin + 10 ug/ml Ob
  MIC: 2 µg/mL
[3]; E. coli WZ2431, colistin-resistant, in the presence of 20 ug/ml Ob, read-out: Colistin MIC, Colistin + 20 ug/ml Ob
  MIC: 0.5 µg/mL
[3]; E. coli WZ2909, colistin-resistant, colistin alone, read-out: Colistin MIC, Colistin
  MIC: 16 µg/mL (≈ 13.8 µM)
[3]; E. coli WZ2909, colistin-resistant, in the presence of 10 ug/ml Ob, read-out: Colistin MIC, Colistin + 10 ug/ml Ob
  MIC: 8 µg/mL
[3]; E. coli WZ2909, colistin-resistant, in the presence of 20 ug/ml Ob, read-out: Colistin MIC, Colistin + 20 ug/ml Ob
  MIC: 1 µg/mL
[3]; E. coli WZ3903, colistin-resistant, colistin alone, read-out: Colistin MIC, Colistin
  MIC: 4 µg/mL (≈ 3.46 µM)
[3]; E. coli WZ3903, colistin-resistant, in the presence of 10 ug/ml Ob, read-out: Colistin MIC, Colistin + 10 ug/ml Ob
  MIC: ≤ 0.25 µg/mL
[3]; E. coli WZ3903, colistin-resistant, in the presence of 20 ug/ml Ob, read-out: Colistin MIC, Colistin + 20 ug/ml Ob
  MIC: ≤ 0.25 µg/mL
[3]; E. coli WZ3906, colistin-resistant, colistin alone, read-out: Colistin MIC, Colistin
  MIC: 8 µg/mL (≈ 6.92 µM)
[3]; E. coli WZ3906, colistin-resistant, in the presence of 10 ug/ml Ob, read-out: Colistin MIC, Colistin + 10 ug/ml Ob
  MIC: 4 µg/mL
[3]; E. coli WZ3906, colistin-resistant, in the presence of 20 ug/ml Ob, read-out: Colistin MIC, Colistin + 20 ug/ml Ob
  MIC: 1 µg/mL

Source: patent publication US12220440B2, “Drug composition, method for treating infection, disinfecting composition, and drug adjuvant” (priority 2022, dated 2025)
